Laboratory results published in paper PMC2858705 (PLoS Pathogens, 2010).
Where “and” joins values, the source holds several entries; their conditions need not be identical. Equal entries are not always repeated. Where two headings read alike, the source gives them in different places.

Tests used:
SARS-CoV nsp14 N7-MTase = SARS-CoV nsp14 N7-MTase (Severe acute respiratory syndrome coronavirus, UniProt P0C6X7); experiment: biochemical; format: biochemical
[1] = molecular target: SARS-CoV nsp10/nsp16 2'O-MTase (Severe acute respiratory syndrome coronavirus, UniProt P0C6X7); experiment: biochemical; format: biochemical
SARS-CoV = conditions: infected cells; cited from earlier work
VV:N7-MTase = conditions: cited from earlier work
VV:2'O-MTase = conditions: cited from earlier work
DV:NS5MTase = conditions: read-out: IC50 2'O-MTase activity of DV:NS5MTase; cited from earlier work

## Nc1nc2c(ncn2[C@@H]2O[C@H](COP(=O)(O)OP(=O)(O)OP(=O)(O)OC[C@H]3O[C@@H](n4cnc5c(N)ncnc54)[C@H](O)[C@@H]3O)[C@@H](O)[C@H]2O)c(=O)[nH]1 [GpppA]
SARS-CoV nsp14 N7-MTase
  inhibition of nsp14 N7-MTase at 100 µM: 50%
[1]
  inhibition of nsp16/nsp10 2'O-MTase at 100 µM: 50%

## O=C(O)C1=CC(=C(c2ccc(O)c(C(=O)O)c2)c2ccc(O)c(C(=O)O)c2)C=CC1=O [ATA, aurintricarboxylic acid]
SARS-CoV nsp14 N7-MTase
  IC50 N7-MTase activity of nsp14: micromolar range
  inhibition of nsp14 N7-MTase at 100 µM (in words): efficiently inhibited
SARS-CoV nsp14 N7-MTase; IC50 N7-MTase activity of nsp14
  IC50: 6.4 µM and 2.1 µM
[1]
  IC50 2'O-MTase activity of nsp10/nsp16: micromolar range
  inhibition of nsp16/nsp10 2'O-MTase at 100 µM (in words): efficiently inhibited
[1]; IC50 2'O-MTase activity of nsp10/nsp16
  IC50: 2.1 µM and 6.4 µM
SARS-CoV
  inhibition of SARS-CoV replication: inhibit SARS-CoV replication

## Nc1ncnc2c1ncn2[C@@H]1O[C@H](CSCC[C@H](N)C(=O)O)[C@@H](O)[C@H]1O [AdoHcy, S-adenosyl-l-homocysteine]
SARS-CoV nsp14 N7-MTase
  inhibition of nsp14 N7-MTase at 100 µM (in words): efficiently inhibited
SARS-CoV nsp14 N7-MTase; read-out: IC50 N7-MTase activity of nsp14
  IC50: 16 µM
[1]
  inhibition of nsp16/nsp10 2'O-MTase at 100 µM (in words): efficiently inhibited
[1]; read-out: IC50 2'O-MTase activity of nsp10/nsp16
  IC50: 12 µM
VV:N7-MTase
  Ki: 1000 nM
VV:2'O-MTase
  Ki: 500 nM

## Cn1c[n+]([C@@H]2O[C@H](COP(=O)(O)OP(=O)(O)OP(=O)(O)OC[C@H]3O[C@@H](n4cnc5c(N)ncnc54)[C@H](O)[C@@H]3O)[C@@H](O)[C@H]2O)c2nc(N)[nH]c(=O)c21 [^7MeGpppA]
SARS-CoV nsp14 N7-MTase
  inhibition of nsp14 N7-MTase at 100 µM: 50%
[1]
  inhibition of nsp16/nsp10 2'O-MTase at 100 µM: 50%

## Nc1ncnc2c1ncn2[C@@H]1O[C@H](C[C@@H](N)CC[C@H](N)C(=O)O)[C@@H](O)[C@H]1O [sinefungin, adenosyl-ornithine]
VV:N7-MTase
  IC50: 12 nM
VV:2'O-MTase
  IC50: 39.5 nM
DV:NS5MTase
  IC50: 420 nM and 630 nM
